Results as given in PubChem BioAssay AID1259411 (Chemical Carcinogenesis Research Information System (CCRIS), 2018).
Calls of active or inactive are those of the source. How the calls were made is not given here.

Test system: rodent carcinogenicity bioassays, tumor incidence
Test: CCRIS carcinogenicity studies
Summary of the method: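 NCI-built, expert-reviewed records of carcinogenicity and related test outcomes (mutagenicity, tumor promotion/inhibition) compiled from published and report sources, historical span 1985-2011, not updated.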

## [CH3][Hg][O]C(C)=O
Species: MOUSE, Strain/Sex: SWISS/FEMALE, Route: ORAL, Dose: 0, 5 PPM (HG) IN DRINKING WATER FOR 70 D THEN 1 PPM (HG) FOR DURATION OF STUDY (STUDY DURATION: LIFE SPAN)
  carcinogen call: inactive; negative
Species: MOUSE, Strain/Sex: SWISS/MALE, Route: ORAL, Dose: 0, 5 PPM (HG) IN DRINKING WATER FOR 70 D THEN 1 PPM (HG) FOR DURATION OF STUDY (STUDY DURATION: LIFE SPAN)
  carcinogen call: inactive; negative

## O=[N+]([O-])c1ccc2ccc3cccc4c3c2c1C1OC41 (centres undefined)
Species: MOUSE, Strain/Sex: B6C3F1/FEMALE, Route: INTRAPERITONEAL, Dose: 0, 7 NMOL (TOTAL DOSE), 1/7, 2/7 AND 4/7 OF THE TOTAL DOSE ADMINISTERED WITHIN 24 HR OF BIRTH AND AT 8 AND 15 D OF AGE
  carcinogen call: inactive; negative
Species: MOUSE, Strain/Sex: B6C3F1/MALE, Route: INTRAPERITONEAL, Dose: 0, 7 NMOL (TOTAL DOSE), 1/7, 2/7 AND 4/7 OF THE TOTAL DOSE ADMINISTERED WITHIN 24 HR OF BIRTH AND AT 8 AND 15 D OF AGE
  carcinogen call: inactive; negative

## Cc1cc2c(c3ccc4ccccc4c13)[C@@H]1O[C@@H]1[C@H](O)[C@H]2O
Species: MOUSE, Strain/Sex: ICR/FEMALE, Route: INTRAPERITONEAL, Dose: 8 NMOL/5 µL DMSO ON DAY 1, 16 NMOL/10 µL ON DAY 8, AND 32 NMOL/20 µL ON DAY 15 OF AGE (STUDY DURATION: 35 WK)
  carcinogen call: inactive; negative
Species: MOUSE, Strain/Sex: ICR/MALE, Route: INTRAPERITONEAL, Dose: 8 NMOL/5 µL DMSO ON DAY 1, 16 NMOL/10 µL ON DAY 8, AND 32 NMOL/20 µL ON DAY 15 OF AGE (STUDY DURATION: 35 WK), Tumor Site: Type of Lesion: LUNG: TUMORS
  carcinogen call: active; positive

## CI
Species: MOUSE, Route: INTRAPERITONEAL, Tumor Site: Type of Lesion: LUNG
  carcinogen call: active; positive
Species: RAT, Route: SUBCUTANEOUS, Tumor Site: Type of Lesion: INJECTION SITE
  carcinogen call: active; positive
Species: Rat, Strain/Sex: Crl:CD(SD)IGS BR/Female (50/Group), Route: Inhalation (whole body), Dose: 0, 5, 20, 60 ppm for 2 yr, study duration 2 yr, Dose: 0, 5, 20, 60 ppm for 2 yr, study duration 2 yr, Tumor Site: Type of Lesion: Thyroid: follicular cell adenoma (60 ppm)
  carcinogen call: active; positive
Species: Rat, Strain/Sex: Crl:CD(SD)IGS BR/Male (50/Group), Route: Inhalation (whole body), Dose: 0, 5, 20, 60 ppm for 2 yr, study duration 2 yr, Dose: 0, 5, 20, 60 ppm for 2 yr, study duration 2 yr, Tumor Site: Type of Lesion: Thyroid: follicular cell adenoma (60 ppm)
  carcinogen call: active; positive

## NC(=O)Cc1c([O-])on[n+]1Cc1ccccc1
Species: MOUSE, Strain/Sex: DDD/FEMALE, Route: ORAL, Dose: 0, 0.002, 0.01, 0.02% IN DRINKING WATER FOR 12 MO (STUDY DURATION: 12 MO), Dose: 0, 0.002, 0.01, 0.02% IN DRINKING WATER FOR 12 MO (STUDY DURATION: 12 MO), Tumor Site: Type of Lesion: LIVER: HEPATOCELLULAR CARCINOMA
  carcinogen call: active; positive
Species: MOUSE, Strain/Sex: DDD/MALE, Route: ORAL, Dose: 0, 0.02% IN DRINKING WATER FOR 12 MO (STUDY DURATION: 12 MO)
  carcinogen call: inactive; negative
Species: RAT, Strain/Sex: DONRYU/FEMALE, Route: ORAL, Dose: 0, 60, 200, 400 PPM IN DRINKING WATER FOR 41 WK (STUDY DURATION: 104 WK), Dose: 0, 60, 200, 400 PPM IN DRINKING WATER FOR 41 WK (STUDY DURATION: 104 WK), Tumor Site: Type of Lesion: LIVER: TUMOR
  carcinogen call: active; positive
Species: RAT, Strain/Sex: DONRYU/MALE, Route: ORAL, Dose: 0, 20 PPM IN DIET FOR 104 WK (STUDY DURATION: 104 WK)
  carcinogen call: inactive; negative
Species: RAT, Strain/Sex: DONRYU/MALE, Route: ORAL, Dose: 0, 60, 200 PPM IN DIET FOR 15 WK (STUDY DURATION: 104 WK), Dose: 0, 60, 200 PPM IN DIET FOR 15 WK (STUDY DURATION: 104 WK), Tumor Site: Type of Lesion: LIVER: TUMOR
  carcinogen call: active; positive
Species: RAT, Strain/Sex: DONRYU/MALE, Route: ORAL, Dose: 0, 60 PPM IN DRINKING WATER FOR 41 WK (STUDY DURATION: 104 WK), Tumor Site: Type of Lesion: LIVER: TUMOR
  carcinogen call: active; positive

## CNC(=O)ON=CC(C)(C)SC
Species: MOUSE, Strain/Sex: B6C3F1/FEMALE, Route: ORAL, Dose: 0, 2, 6 PPM IN DIET, Dose: 0, 2, 6 PPM IN DIET
  carcinogen call: inactive; negative
Species: MOUSE, Strain/Sex: B6C3F1/MALE, Route: ORAL, Dose: 0, 2, 6 PPM IN DIET, Dose: 0, 2, 6 PPM IN DIET
  carcinogen call: inactive; negative
Species: RAT, Strain/Sex: F344/FEMALE, Route: ORAL, Dose: 0, 2, 6 PPM IN DIET, Dose: 0, 2, 6 PPM IN DIET
  carcinogen call: inactive; negative
Species: RAT, Strain/Sex: F344/MALE, Route: ORAL, Dose: 0, 2, 6 PPM IN DIET, Dose: 0, 2, 6 PPM IN DIET
  carcinogen call: inactive; negative

## OCCN(CCO)CCO
Species: MOUSE, Route: ORAL, Tumor Site: Type of Lesion: LYMPHATIC SYSTEM
  carcinogen call: active; positive
Species: MOUSE, Strain/Sex: B6C3F1/FEMALE, Route: DERMAL, Dose: 0, 100, 300, 1000 MG/KG 5 D/WK FOR 104 -105 WKS (STUDY DURATION: 105 WKS), Dose: 0, 100, 300, 1000 MG/KG 5 D/WK FOR 104 -105 WKS (STUDY DURATION: 105 WKS), Tumor Site: Type of Lesion: LIVER: HEPATOCELLULAR ADENOMA OR CARCINOMA
  carcinogen call: active; positive
Species: MOUSE, Strain/Sex: B6C3F1/FEMALE, Route: ORAL, Dose: 0, 1, 2% IN DRINKING WATER FOR 82 WK (STUDY DURATION: 82 WK), Dose: 0, 1, 2% IN DRINKING WATER FOR 82 WK (STUDY DURATION: 82 WK)
  carcinogen call: inactive; negative
Species: MOUSE, Strain/Sex: B6C3F1/MALE, Route: DERMAL, Dose: 0, 200, 630, 2000 MG/KG 5D/WK FOR 104 WKS (STUDY DURATION: 104 WKS), Dose: 0, 200, 630, 2000 MG/KG 5D/WK FOR 104 WKS (STUDY DURATION: 104 WKS), Tumor Site: Type of Lesion: LIVER: HEMANGIOSARCOMA AT MEDIAN DOSE LEVEL
  carcinogen call: equivocal; p=0.047 at median dose for hemangiosarcoma
Species: MOUSE, Strain/Sex: B6C3F1/MALE, Route: ORAL, Dose: 0, 1, 2% IN DRINKING WATER FOR 82 WK (STUDY DURATION: 82 WK), Dose: 0, 1, 2% IN DRINKING WATER FOR 82 WK (STUDY DURATION: 82 WK)
  carcinogen call: inactive; negative
Species: RAT, Strain/Sex: F344/FEMALE, Route: DERMAL, Dose: 0, 32, 63, 125 MG/KG 5 D/WK FOR 103 WK (STUDY DURATION: 103 WK), Dose: 0, 32, 63, 125 MG/KG 5 D/WK FOR 103 WK (STUDY DURATION: 103 WK)
  carcinogen call: inactive; negative
Species: RAT, Strain/Sex: F344/MALE, Route: DERMAL, Dose: 0, 32, 63, 125 MG/KG 5 D/WK FOR 103 WK (STUDY DURATION: 103 WK), Dose: 0, 32, 63, 125 MG/KG 5 D/WK FOR 103 WK (STUDY DURATION: 103 WK), Tumor Site: Type of Lesion: KIDNEY: RENAL TUBULE ADENOMA
  carcinogen call: equivocal

## CCC(=O)O[C@H]1CC[C@H]2[C@@H]3CCC4=CC(=O)CC[C@]4(C)[C@H]3CC[C@]12C
Species: MOUSE, Route: SUBCUTANEOUS IMPLANT, Tumor Site: Type of Lesion: CERVIX, UTERUS
  carcinogen call: active; positive
Species: RAT, Route: SUBCUTANEOUS IMPLANT, Tumor Site: Type of Lesion: PROSTATE GLAND
  carcinogen call: active; positive

## C1CCOC1
Species: MOUSE, Strain/Sex: B6C3F1/FEMALE, Route: INHALATION, Dose: 0, 200, 600, 1800 PPM 6HR/D 5 D/WK FOR 105 WK (STUDY DURATION: 105 WK), Dose: 0, 200, 600, 1800 PPM 6HR/D 5 D/WK FOR 105 WK (STUDY DURATION: 105 WK), Tumor Site: Type of Lesion: LIVER: ADENOMA OR CARCINOMA
  carcinogen call: active; positive
Species: MOUSE, Strain/Sex: B6C3F1/FEMALE, Route: INHALATION, Dose: 0, 200, 600, 1800 PPM 6 HR/D 5 D/WK FOR 105 WK (STUDY DURATION: 105 WK), Dose: 0, 200, 600, 1800 PPM 6 HR/D 5 D/WK FOR 105 WK (STUDY DURATION: 105 WK), Tumor Site: Type of Lesion: LIVER: HEPATOCELLULAR ADENOMA, HEPATOCELLULAR CARCINOMA
  carcinogen call: active; positive
Species: MOUSE, Strain/Sex: B6C3F1/MALE, Route: INHALATION, Dose: 0, 200, 600, 1800 PPM 6 HR/D 5 D/WK FOR 105 WK (STUDY DURATION: 105 WK), Dose: 0, 200, 600, 1800 PPM 6 HR/D 5 D/WK FOR 105 WK (STUDY DURATION: 105 WK)
  carcinogen call: inactive; negative
Species: RAT, Strain/Sex: F344/FEMALE, Route: INHALATION, Dose: 0, 200, 600, 1800 PPM 6 HR/D 5 D/WK FOR 105 WK (STUDY DURATION: 105 WK), Dose: 0, 200, 600, 1800 PPM 6 HR/D 5 D/WK FOR 105 WK (STUDY DURATION: 105 WK)
  carcinogen call: inactive; negative
Species: RAT, Strain/Sex: F344/MALE, Route: INHALATION, Dose: 0, 200, 600, 1800 PPM 6 HR/D 5 D/WK FOR 105 WK (STUDY DURATION: 105 WK), Dose: 0, 200, 600, 1800 PPM 6 HR/D 5 D/WK FOR 105 WK (STUDY DURATION: 105 WK), Tumor Site: Type of Lesion: KIDNEY: RENAL TUBULE ADENOMA OR CARCINOMA
  carcinogen call: active; positive
